Experimental data: patent US7601884B2, “Method of producing cloned animals by demecolcine treatment” (KNU - Industry Cooperation Foundation, priority 2007, dated 2009)

Key:
SCNT porcine embryos = assay: In vitro development of SCNT porcine embryos after DEM treatment; format: cell-based, pig
Experimental: (§1) After the activation stimulation, the activated embryos were incubated in NCSU-23 culture medium containing 0.4 μg/ml demecolcine (DEM) (Sigma-Aldrich Corp., USA) for 4 hours.
With the same method as in Exemplary Embodiment <3-4>, the fused NT embryos were electrically activated, but not treated with DEM.
After activation stimulation, the SCNT embryos were cultured in in vitro culture medium for 6 days in an atmosphere of 5% CO2, 5% O2 and 90% N2 gas.
(§2) The SCNT embryos of Exemplary Embodiment 3 and Comparative Example 1 were cultured in vitro with an atmosphere of 5% CO2, 5% O2 and 90% N2 gases. On the second and sixth days of the in vitro culture, their division rates and development to blastocysts were monitored. Further, the blastocysts were stained with bis-benzimide to estimate the number of cells under a fluorescent microscope.

[1] = test system: recipient pigs transferred with SCNT embryos; assay: Delivery rate and number of pigs born alive after in vivo transfer of DEM-treated SCNT embryos; set-up: species or system pig
Source text: For in vivo transfer of the NT embryos, a naturally-estrous gilt was used as a recipient animal. On the day of the production of the NT embryos, a standing estrus pig was subjected to inhalation anesthesia, and using a common method, cut open to expose the ovaries and oviducts. After confirming the presence of follicle, ovulation and corpus luteum in the ovary, 90 to 160 SCNT embryos activated and treated with DEM were transferred into the oviduct by fimbriae. The recipient pig into which the NT embryos were transferred was monitored to confirm whether or not it was estrus, and a pregnancy test was taken every two weeks, 4 weeks after transfer of the fertilized embryos. When the recipient pig gave birth to live, SCNT embryo-derived offspring, its period of pregnancy, the number of live offspring, their weight, and morphological abnormalities found in any of the live offspring were monitored and recorded.
The effect of DEM treatment to the SCNT embryos on delivery rate and the number of pigs born alive was surveyed. Each group of SCNT embryos (107-160/a recipient pig), wherein one was treated with DEM according to Exemplary Embodiment 4 and the other (102-165/a recipient pig) was not treated with DEM, was transferred into 8 to 10 recipient pigs monitored to see whether or not they were estrus. Starting 4 weeks after transfer of the fertilized embryos, they were given pregnancy tests every 2 weeks. When they gave birth to live, SCNT embryo-derived offspring, the period of pregnancy, the number of live offspring, their weight and any morphological abnormalities were monitored and recorded. Further, the number of recipient pigs having live offspring and the number of pigs born alive in a litter were surveyed.

SCNT embryos [2] = assay: In vitro development of SCNT embryos according to time of DEM treatment; format: cell-based, pig
Experimental: as §2
Change in in vitro development of SCNT embryos depending on the time of DEM treatment was surveyed. The SCNT embryos activated according to Exemplary Embodiment <3-4> were incubated in NCSU-23 culture medium containing 0.4 μg/ml DEM for 2, 4 and 6 hours, respectively, and cultured in vitro by the same method as described in Experimental Example 1, followed by observation of their development to blastocysts.

SCNT embryos [3] = assay: Production of pseudo-pronuclei of SCNT embryos after DEM treatment; format: cell-based, pig; conditions: 0.4 μg/ml DEM for 4 hours
Experimental: as §1
The oocytes treated with DEM of Exemplary Embodiment 3 or the oocytes of Comparative Example 1 were cultured in vitro for 7 hours, activated, fixed for 11 hours, and stained to estimate the number of pseudo-pronuclei and their production rate. The fixation of the oocytes was performed using a whole-mount method. 10 to 20 oocytes were placed on a slide glass and covered with a cover glass. The oocytes were fixed in a fixative (25% acetic acid in ethanol) at 33° C. for 10 to 20 minutes. The fixed oocytes were stained with 1% orcein (in 45% acetic acid solution) and then the pseudo pronuclei were observed by a phase microscope.

[4] = recipient pig transferred with SCNT embryos treated with DEM
[5] = 0.4 μg/ml DEM for 2 hrs, of N=141
[6] = 0.4 μg/ml DEM for 4 hrs, of N=142
[7] = 0.4 μg/ml DEM for 6 hrs, of N=142

Structure (SMILES): CN[C@H]1CCc2cc(OC)c(OC)c(OC)c2-c2ccc(OC)c(=O)cc21 [DEM, demecolcine]
- ≧2-Cell(%) (SCNT porcine embryos; 0.4 μg/ml DEM for 4 hours after activation, second day of in vitro culture): 76.8%
- ≧2-Cell, number of embryos (SCNT porcine embryos; 0.4 μg/ml DEM for 4 hours after activation, second day of in vitro culture, of N=187): 144
- Blastocyst(%) (SCNT porcine embryos; 0.4 μg/ml DEM for 4 hours after activation, sixth day of in vitro culture): 27.3%
- Blastocyst, number of embryos (SCNT porcine embryos; 0.4 μg/ml DEM for 4 hours after activation, sixth day of in vitro culture, of N=187): 51
- No. of Cells/Blastocysts (SCNT porcine embryos; 0.4 μg/ml DEM for 4 hours, bis-benzimide staining): 39.5
- development to blastocysts versus Comparative Example 1 (not treated with DEM) (SCNT porcine embryos; embryos treated with DEM, then cultured in vitro): significantly improved
- No. of Pigs/Litter ([1]; SCNT embryos treated with DEM): 3.0
- No. of Pigs Born Alive ([1]; SCNT embryos treated with DEM, 8 recipient pigs): 12
- Recipient Pigs Delivered(%) ([1]; SCNT embryos treated with DEM, 107-160 per recipient pig): 50.0%
- No. of Recipient Pigs Delivered ([1]; SCNT embryos treated with DEM, 107-160 per recipient pig, of N=8 recipients): 4
- delivery rate versus Comparative Example 1 (no DEM) [1, 4]: significantly increased
- number of pigs born alive in a litter versus Comparative Example 1 (no DEM) [1, 4]: significantly increased
- change in in vitro development of the SCNT embryos according to the time of DEM treatment (SCNT embryos [2]; 0.4 μg/ml DEM for 2, 4 and 6 hours): wasn't a significant change
- Blastocysts (%) (SCNT embryos [2]; 0.4 μg/ml DEM for 2 hrs): 24.8%
- No. of Cells/Blastocysts (SCNT embryos [2]; 0.4 μg/ml DEM for 2 hrs): 35.3 ± 2.1
- ≧2 cells (%) (SCNT embryos [2]; 0.4 μg/ml DEM for 2 hrs): 84.4%
- Blastocysts, number of embryos (SCNT embryos [2]; [5]): 35
- ≧2 cells, number of embryos (SCNT embryos [2]; [5]): 119
- Blastocysts (%) (SCNT embryos [2]; 0.4 μg/ml DEM for 4 hrs): 29.6%
- No. of Cells/Blastocysts (SCNT embryos [2]; 0.4 μg/ml DEM for 4 hrs): 35.2 ± 1.8
- ≧2 cells (%) (SCNT embryos [2]; 0.4 μg/ml DEM for 4 hrs): 80.3%
- Blastocysts, number of embryos (SCNT embryos [2]; [6]): 42
- ≧2 cells, number of embryos (SCNT embryos [2]; [6]): 114
- Blastocysts (%) (SCNT embryos [2]; 0.4 μg/ml DEM for 6 hrs): 25.4%
- No. of Cells/Blastocysts (SCNT embryos [2]; 0.4 μg/ml DEM for 6 hrs): 30.8 ± 2.7
- ≧2 cells (%) (SCNT embryos [2]; 0.4 μg/ml DEM for 6 hrs): 78.2%
- Blastocysts, number of embryos (SCNT embryos [2]; [7]): 36
- ≧2 cells, number of embryos (SCNT embryos [2]; [7]): 111
- in vitro development of SCNT embryos, comparison of treatment times (SCNT embryos [2]; 4-hour incubation period with 0.4 μg/ml DEM): highest level of growth
- 1PPN (one pseudo pronucleus) (%) (SCNT embryos [3]): 83.7%
- Multi-PPN (2 or more pseudo pronuclei) (%) (SCNT embryos [3]): 9.3%
- Others(%) (SCNT embryos [3]): 7.0%
- 1PPN (one pseudo pronucleus), number of embryos (SCNT embryos [3]; of N=43): 36
- Multi-PPN (2 or more pseudo pronuclei), number of embryos (SCNT embryos [3]; of N=43): 4
- Others, number of embryos (SCNT embryos [3]; of N=43): 3
